Data on one compound can be found in patent publication US20130137739A1, “SOLID DISPERSION COMPRISING TRIAZOLE COMPOUND” (Astellas Pharma, Inc., priority 2010, published 2013).

The structures appear in SMILES notation. Converted amounts (≈) assume the structure as drawn. Where two headings read alike, the source gives them in different places.

Series [1] is described as follows: Solubility of Compound A in water and organic solvents. The class given is physicochemical.
Series [2] is described as follows: Glass transition point (Tg) by DSC. The class given is physicochemical. The note with it: Compound A itself. On the procedure:
The glass transition point of a solid dispersion can be obtained by subjecting the solid dispersion to calorimetric measurements using DSC and plotting a curve of changes in the amount of heat. In more practical terms a sample of about 10 mg is weighed out onto an aluminum pan and calorimetry is carried out for temperatures from 0° C. and 150° C. with a rate of temperature increase of 5° C. per minute. In the process of heating the sample heat is absorbed or generated at the glass transition point and, as a result, the baseline of the calorimetric curve will shift downward. Extended lines are drawn for the two baselines, namely the original baseline and the shifted baseline, and the glass transition temperature is obtained from the intersection point of the ½ line between the two baselines and the calorimetric curve.
Particles of the solid dispersion (about 10 mg) of each example and comparative example were weighed out on an aluminum pan and calorimetric measurements were made at temperatures between 0° C. to 150° C. with a rate of temperature increase of 5° C. per minute. Heat was absorbed or generated at the glass transition point in the course of heating the sample and, as a result, the baseline of the calorimetric curve shifted downward. […]
Background: In DSC, transitions show as peaks or steps in heat flow.

For `COc1ccc(-c2nc(OC)nn2-c2ccc(OC)cc2)cc1` [Compound A, 3-methoxy-1,5-bis(4-methoxyphenyl)-1H-1,2,4-triazole], the solubility (as a rule, how much of the substance goes into solution per volume) in series [1] (acetone, organic solvent or mixture, room temperature, read-out: solubility in organic solvent: acetone) came to 82.2 mg/mL (≈ 264 mM); in series [1] (ethanol, organic solvent or mixture, room temperature, read-out: solubility in organic solvent: ethanol), 15.9 mg/mL (≈ 51.1 mM); in series [1] (polyethylene glycol, organic solvent or mixture, room temperature, read-out: solubility in organic solvent: polyethylene glycol) it was 6.3 mg/mL (≈ 20.2 mM); in series [1] (water, 37° C., read-out: solubility in water), 0.0107 mg/mL (≈ 0.0344 mM). For the same compound, the “glass transition point of Compound A” value in series [2] came out at 4 °C.
